Reference: US11505558B1, “Antiviral heterocyclic compounds” (Enanta Pharmaceuticals, Inc., priority 2019, dated 2022)

Tested on: genotype A, "Long" strain RSV
Test: RSV-A assay (CPE, ATPlite readout in Hep-2 cells)
Type: cell-based
Conditions: human respiratory syncytial virus, HEp-2, Hep-2 cells, genotype A "Long" strain RSV, MOI 0.1; read-out: Human RSV-A (“Long” strain) EC50
How it was run: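 Hep-2 cells (8,000/well) received 2-fold serial compound dilutions in duplicate and RSV Long strain at MOI 0.1. After 5 days' incubation, cell health was read as ATP by ATPlite luminescence, with virus-only and uninfected controls defining max and minimum CPE; EC50 reported.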

Structure (SMILES)	EC50
CCc1cnc2c(O)cc(C(=O)NC[C@](O)(c3cc4c(c(-c5ccc(F)cc5)n3)OC[C@]4(C)C(N)=O)C(F)(F)F)cc2c1 [Example 261]	< 200 nM
CN(C)c1nc2ccc(C(=O)NC[C@](O)(c3cc4c(c(-c5ccc(F)cc5)n3)OC[C@]4(C)C(N)=O)C(F)(F)F)cc2s1 [Example 438]	< 200 nM
C[C@]1(C(N)=O)COc2c1cc([C@@](O)(CNC(=O)c1ccc3nc(N)oc3c1)C(F)(F)F)nc2-c1ccc(F)c(Cl)c1 [Example 426]	< 200 nM
Cc1cnc2c(O)cc(C(=O)NC[C@](O)(c3cc4c(c(-c5ccc(F)cc5)n3)OC[C@]4(C)C(N)=O)C3CC3)cc2c1 [Example 254]	< 200 nM
COc1nc2ccc(C(=O)NC[C@](O)(c3cc4c(c(-c5ccc(F)cc5)n3)OC[C@]4(C)C(N)=O)C(F)(F)F)cc2s1 [Example 312]	< 200 nM
CC(C)CCNC(=O)[C@@]1(C)COc2c1cc([C@@](O)(CNC(=O)c1cc(OC3CC3)c3ncccc3c1)C(F)(F)F)nc2-c1ccc(F)cc1 [Example 472]	> 200 nM
C[C@]1(C(N)=O)COc2c1cc([C@@](O)(CNC(=O)c1ccc(OC(F)F)c(OC(F)F)c1)C(F)(F)F)nc2-c1ccc(F)cc1 [Example 70]	< 200 nM
CC(C)(C)NC(=O)[C@@]1(C)COc2c1cc([C@@](O)(CNC(=O)c1cc(OC3CC3)c3ncccc3c1)C(F)(F)F)nc2-c1ccc(F)cc1 [Example 453]	< 200 nM
C[C@]1(C(N)=O)COc2c1cc([C@@](O)(CNC(=O)c1cc3c(F)cc(F)cc3[nH]1)C(F)(F)F)nc2-c1ccc(F)cc1 [Example 596]	< 200 nM
CC(C)(O)CNC(=O)[C@@]1(C)COc2c1cc([C@@](O)(CNC(=O)c1ccc3nc(N)sc3c1)C(F)(F)F)nc2-c1ccc(F)c(Cl)c1 [Example 500]	< 200 nM
CNC(=O)[C@@]1(C)COc2c1cc([C@@](O)(CNC(=O)c1cc(NC(N)=O)c3ncccc3c1)C(F)(F)F)nc2-c1ccc(F)cc1 [Example 284]	< 200 nM
C[C@]1(C(N)=O)COc2c1cc([C@@](O)(CNC(=O)c1ccc(OC3CC3)c(-c3ccnnc3)c1)C(F)(F)F)nc2-c1ccc(F)cc1 [Example 135]	< 200 nM
CCc1ccc2cc(C(=O)NC[C@](O)(c3cc4c(c(-c5ccc(F)cc5)n3)OC[C@]4(C)C(N)=O)C(F)(F)F)cc(OC)c2n1 [Example 273]	< 200 nM
C[C@]1(C(N)=O)COc2c1cc([C@@](O)(CNC(=O)c1ccc(OC3CC3)c(F)c1)C(F)(F)F)nc2-c1ccc(F)cc1 [Example 72]	< 200 nM
CCc1cnc2c(OCC(N)=O)cc(C(=O)NC[C@](O)(c3cc4c(c(-c5ccc(F)c(Cl)c5)n3)OC[C@]4(C)C(N)=O)C(F)(F)F)cc2c1 [Example 369]	< 200 nM
C[C@]1(C(N)=O)COc2c1cc([C@@](O)(CNC(=O)c1ccc(OC3CC3)c(-c3ccc(C(F)(F)F)cn3)c1)C(F)(F)F)nc2-c1ccc(F)cc1 [Example 108]	> 200 nM
C[C@]1(C(N)=O)COc2c1cc([C@@](O)(CNC(=O)c1cc(NS(C)(=O)=O)c3ncccc3c1)C(F)(F)F)nc2-c1ccc(F)cc1 [Example 394]	> 200 nM
Cn1c(N)nc2cc(C(=O)NC[C@](O)(c3cc4c(c(-c5ccc(F)cc5)n3)OC[C@]4(C)C(N)=O)C(F)(F)F)ccc21 [Example 447]	> 200 nM
C[C@]1(C(N)=O)COc2c1cc([C@@](O)(CNC(=O)c1ccc3nc[nH]c3c1)C(F)(F)F)nc2-c1ccc(F)cc1 [Example 291]	< 200 nM

Structure (SMILES)	EC50
C[C@]1(C(N)=O)COc2c1cc([C@@](O)(CNC(=O)c1ccccc1)C(F)(F)F)nc2-c1ccc(F)cc1 [Example 308]	> 200 nM
C[C@]1(C(N)=O)COc2c1cc([C@@](O)(CNC(=O)c1cncc(C(N)=O)c1)C(F)(F)F)nc2-c1ccc(F)cc1 [Example 296]	> 200 nM
COc1cc(C(=O)NC[C@](O)(c2cc3c(c(-c4ccc(F)c(C)c4)n2)OC[C@]3(C)C(=O)NCC(C)(C)O)C(F)(F)F)cc2cc(C)cnc12 [Example 503]	< 200 nM
COc1ncc(-c2cc(C(=O)NC[C@](O)(c3cc4c(c(-c5ccc(F)cc5)n3)OC[C@]4(C)C(N)=O)C(F)(F)F)ccc2OC2CC2)s1 [Example 130]	> 200 nM
Cc1ncc(-c2ccc(C(=O)NC[C@](O)(c3cc4c(c(-c5ccc(F)cc5)n3)OC[C@]4(C)C(N)=O)C(F)(F)F)cc2OC2CC2)s1 [Example 176]	> 200 nM
C[C@]1(C(N)=O)COc2c1cc([C@@](O)(CNC(=O)c1cnc3cnccc3c1)C(F)(F)F)nc2-c1ccc(F)cc1 [Example 244]	> 200 nM
CN1Cc2cc(C(=O)NC[C@](O)(c3cc4c(c(-c5ccc(F)cc5)n3)OC[C@]4(C)C(N)=O)C(F)(F)F)ccc2C1=O [Example 644]	< 200 nM
Cc1cnc2c(O)cc(C(=O)NC[C@](O)(c3cc4c(c(-c5ccc(F)c(Cl)c5)n3)OC[C@]4(C)C(N)=O)C(F)(F)F)cc2c1 [Example 253]	< 200 nM
COc1cc(C(=O)NC[C@](O)(c2cc3c(c(-c4ccc(F)cc4)n2)OC[C@]3(C)C(N)=O)C(F)(F)F)ccc1-c1nncs1 [Example 201]	< 200 nM
C[C@]1(C(=O)NCc2ccoc2)COc2c1cc([C@@](O)(CNC(=O)c1cc(OC3CC3)c3ncccc3c1)C(F)(F)F)nc2-c1ccc(F)cc1 [Example 490]	< 200 nM
C[C@]1(C(N)=O)COc2c1cc([C@@](O)(CNC(=O)c1cc(O)c3nc(C(F)(F)F)ccc3c1)C(F)(F)F)nc2-c1ccc(F)cc1 [Example 227]	> 200 nM
Cc1ccc2cc(C(=O)NC[C@](O)(c3cc4c(c(-c5ccc(F)cc5)n3)OC[C@]4(C)C(N)=O)C(F)(F)F)cc(N3CCCC3=O)c2n1 [Example 652]	> 200 nM
COc1cc(C(=O)NC[C@](O)(c2cc3c(c(-c4cn(-c5ccc(F)cc5)nn4)n2)OC[C@]3(C)C(N)=O)C(F)(F)F)ccc1OC1CC1 [Example 517]	> 200 nM
Cn1cc2cc(C(=O)NC[C@](O)(c3cc4c(c(-c5ccc(F)c(Cl)c5)n3)OC[C@]4(C)C(N)=O)C(F)(F)F)ccc2n1 [Example 639]	< 200 nM
C[C@]1(C(=O)NCCCOC(N)=O)COc2c1cc([C@@](O)(CNC(=O)c1cc(OC3CC3)c3ncccc3c1)C(F)(F)F)nc2-c1ccc(F)cc1 [Example 457]	< 200 nM
COc1cc(OC)c2cc(C(=O)NC[C@](O)(c3cc4c(c(-c5ccc(F)cc5)n3)OC[C@]4(C)C(N)=O)C(F)(F)F)[nH]c2c1 [Example 332]	< 200 nM
Cc1ccc(-c2nc([C@@](O)(CNC(=O)c3cc(OC4CC4)c4ncccc4c3)C(F)(F)F)cc3c2OC[C@]3(C)C(N)=O)cc1 [Example 283]	< 200 nM
COc1cc(C(=O)NC[C@](O)(c2cc3c(c(-c4ccc(F)cc4)n2)OC[C@]3(C)C(N)=O)C(F)(F)F)ccc1OCCF [Example 68]	< 200 nM
C[C@]1(C(N)=O)COc2c1cc([C@@](O)(CNC(=O)c1cnc3cccnc3c1)C(F)(F)F)nc2-c1ccc(F)cc1 [Example 242]	> 200 nM

Structure (SMILES)	EC50
CC(C)(O)c1ccc2cc(C(=O)NC[C@](O)(c3cc4c(c(-c5ccc(F)cc5)n3)OC[C@]4(C)C(N)=O)C(F)(F)F)cc(OC3CC3)c2n1 [Example 407]	> 200 nM
C[C@@H](O)COc1ccc(C(=O)NC[C@](O)(c2cc3c(c(-c4ccc(F)cc4)n2)OC[C@]3(C)C(N)=O)C(F)(F)F)cc1-c1cccnc1 [Example 204]	> 200 nM
C[C@]1(C(N)=O)COc2c1cc([C@@](O)(CNC(=O)c1ccc(-c3ncccn3)c(OC3CC3)c1)C(F)(F)F)nc2-c1ccc(F)cc1 [Example 163]	> 200 nM
COc1ccc2c(C(=O)NC[C@](O)(c3cc4c(c(-c5ccc(F)cc5)n3)OC[C@]4(C)C(N)=O)C(F)(F)F)n[nH]c2c1 [Example 331]	> 200 nM
C[C@]1(C(N)=O)COc2c1cc([C@@](O)(CNC(=O)c1cc(-c3ccccn3)c3ncccc3c1)C(F)(F)F)nc2-c1ccc(F)cc1 [Example 353]	< 200 nM
C[C@]1(C(=O)N2CCC(=O)C2)COc2c1cc([C@@](O)(CNC(=O)c1cc(OC3CC3)c3ncccc3c1)C(F)(F)F)nc2-c1ccc(F)cc1 [Example 556]	< 200 nM
COc1ccc2[nH]nc(C(=O)NC[C@](O)(c3cc4c(c(-c5ccc(F)cc5)n3)OC[C@]4(C)C(N)=O)C(F)(F)F)c2c1 [Example 586]	> 200 nM
C[C@]1(C(N)=O)COc2c1cc([C@@](O)(CNC(=O)c1cn3ncccc3n1)C(F)(F)F)nc2-c1ccc(F)cc1 [Example 307]	> 200 nM
CCc1cnc2c(OCC(N)=O)cc(C(=O)NC[C@](O)(c3cc4c(c(-c5ccc(F)cc5)n3)OC[C@]4(C)C(N)=O)C(F)(F)F)cc2c1 [Example 368]	< 200 nM
C[C@]1(C(N)=O)COc2c1cc([C@@](O)(CNC(=O)c1cc(OCCNS(C)(=O)=O)c3ncccc3c1)C(F)(F)F)nc2-c1ccc(F)cc1 [Example 358]	> 200 nM
COc1cc(C(=O)NC[C@](O)(c2cc3c(c(-c4ccc(F)cc4)n2)OC[C@]3(C)C(=O)NC2(C)COC2)C(F)(F)F)cc2cccnc12 [Example 57]	< 200 nM
C[C@]1(CNCC2CC2)COc2c1cc([C@@](O)(CNC(=O)c1ccc(OC(F)F)c(OCC3CC3)c1)C(F)(F)F)nc2-c1ccc(F)cc1 [Example 33]	> 200 nM
C[C@]1(C(N)=O)COc2c1cc([C@@](O)(CNC(=O)c1ccc3ncc(C4CC4)cc3c1)C(F)(F)F)nc2-c1ccc(F)cc1 [Example 525]	< 200 nM
COc1cc(C(=O)NC[C@](O)(c2cc3c(c(-c4ccc(F)cc4)n2)OC[C@]3(C)C(N)=O)C(F)(F)F)ccc1OCC(C)(C)O [Example 647]	< 200 nM
C[C@]1(C(N)=O)COc2c1cc([C@@](O)(CNC(=O)c1ccc(-c3ccnc(C(F)(F)F)c3)c(OC3CC3)c1)C(F)(F)F)nc2-c1ccc(F)cc1 [Example 152]	> 200 nM
Cc1ccc(-c2ccc(C(=O)NC[C@](O)(c3cc4c(c(-c5ccc(F)cc5)n3)OC[C@]4(C)C(N)=O)C(F)(F)F)cc2OC2CC2)cn1 [Example 146]	> 200 nM
C[C@]1(C(N)=O)COc2c1cc([C@@](O)(CNC(=O)c1ccc(OC3CC3)c(-c3ccccn3)c1)C(F)(F)F)nc2-c1ccc(F)cc1 [Example 106]	< 200 nM
COc1cc(C(=O)NC[C@](O)(c2cc3c(c(-c4ccc(F)cc4)n2)OC[C@]3(C)C(N)=O)C(F)(F)F)ccc1OCCN1CCN(C)CC1 [Example 190]	> 200 nM
